Molecules are shown by their SMILES.

As a reminder, the inhibition is the share of the control response that was lost under treatment.

Test [1] deals with IICR (IP3 induced calcium release) in CHO cells. In words: Assay of IICR (IP3 induced calcium release)-inhibiting action. The test is classed as cell-based, Chinese hamster. To be noted: CHO cells, 10 μM ATP; for inhibition at 10 µM / inhibition at 30 µM / inhibition at 100 µM: Cricetulus griseus, CHO, read-out: IICR level (percentage of inhibition). How it is done: The extracellular fluid (i.e., medium) of cultured CHO cells was replaced by BSS containing calcium. One minute later, a test compound was added. Two minutes later, 10 μM ATP was added. The IICR-inhibiting action levels at different compound concentrations after the addition of ATP were determined as the percentage of inhibition (%) by evaluating the influence of the compound on the degree of increase in the intracellular calcium concentration.
(§1) Hereafter, the numerals in parentheses written after the TG level, the SOCE level, and the IICR level correspond to the test compound concentrations. The number following the name of each title compound used in the Examples below represents a compound ID number designated arbitrarily by the present inventors.

Test [2] deals with SOCE (store operated calcium entry) in CHO cells. In words: Assay of SOCE (store operated calcium entry)-inhibiting action. The test is classed as cell-based, Chinese hamster. To be noted: CHO cells, thapsigargin; for inhibition at 10 µM / inhibition at 30 µM / inhibition at 100 µM: Cricetulus griseus, CHO, read-out: SOCE level (percentage of inhibition). How it is done: The extracellular fluid (i.e., medium) of cultured Chinese hamster ovary (CHO) cells was replaced by BSS containing no calcium. One minute later, a test compound was added. Two minutes later, 1 μM thapsigargin was added to cause depletion of the intracellular calcium store. Nine minutes later, calcium chloride (final concentration: 2 mM) was added to the extracellular fluid. The SOCE-inhibiting action levels at different compound concentrations after the addition of calcium chloride were determined as the percentage of inhibition (%) by evaluating the influence of the compound on the degree of increase in the intracellular calcium concentration.
as §1

With `Cc1cccc2cc(C(=O)CCN(Cc3ccccc3)C(C)C)ccc12` [Example 79, 2-(N-isopropylbenzyl)aminoethyl-5-methyl-2-naphthylketone], the inhibition at 10 µM amounted to 70% in test [1] (test compound 10 μmol) and 10% in test [2] (test compound 10 μmol). Besides, the inhibition at 30 µM in test [1] (test compound 30 μmol) was found to be 90%; in test [2] (test compound 30 μmol), 30%. For the same compound, the inhibition at 100 µM in test [1] (test compound 100 μmol) was 90%; in test [2] (test compound 100 μmol), 70%.
`Cc1cccc2cc(C(=O)CCN(c3ccccc3)c3ccccc3)ccc12` [Example 80, 2-(N-diphenyl)aminoethyl-5-methyl-2-naphthylketone]: the inhibition at 10 µM in test [1] (test compound 10 μmol) and in test [2] (test compound 10 μmol) was 10% each time. For the same compound, the inhibition at 30 µM in test [1] (test compound 30 μmol) is 50%; in test [2] (test compound 30 μmol), 30%. The inhibition at 100 µM came to 90% in test [1] (test compound 100 μmol) and 50% in test [2] (test compound 100 μmol).
For `Cc1cccc2cc(C(=O)CCN3CCCCC3)ccc12` [Example 81, 2-piperidinoethyl-5-methyl-2-naphthylketone], the inhibition at 10 µM in test [1] (test compound 10 μmol) and in test [2] (test compound 10 μmol) was 0% in each case. Besides, the inhibition at 30 µM in test [1] (test compound 30 μmol) and in test [2] (test compound 30 μmol) was 10% each time. Further, the inhibition at 100 µM amounted to 30% in test [1] (test compound 100 μmol) and 40% in test [2] (test compound 100 μmol).
For the compound `CC(C)N(CCC(=O)c1cccc2ccccc12)Cc1ccccc1` [Example 82, 1-(N-benzylisopropyl)aminoethyl-1-naphthylketone], the inhibition at 10 µM is 50% in test [1] (test compound 10 μmol) and 0% in test [2] (test compound 10 μmol). The inhibition at 30 µM in test [1] (test compound 30 μmol) was found to be 70%; in test [2] (test compound 30 μmol), 0%. The figures for the inhibition at 100 µM in test [1] (test compound 100 μmol) and in test [2] (test compound 100 μmol) were 100% and 20%, respectively.
For the compound `CC(C)N(CCC(=O)c1ccc2c(Cl)cccc2c1)Cc1ccccc1` [Example 84, 2-(N-isopropylbenzyl)aminoethyl-5-chloro-2-naphthylketone], the inhibition at 10 µM in test [1] (test compound 10 μmol) came to 90%; in test [2] (test compound 10 μmol) it was 20%. Also, the inhibition at 30 µM is 100% in test [1] (test compound 30 μmol) and 30% in test [2] (test compound 30 μmol). Besides, the inhibition at 100 µM in test [1] (test compound 100 μmol) was determined as 100%; in test [2] (test compound 100 μmol), 70%.
For the compound `CC(C)N(CCC(=O)c1ccc(Oc2ccccc2)cc1)Cc1ccccc1` [Example 85, 2-(N-isopropylbenzyl)aminoethyl-4-phenoxyphenylketone], the results for the inhibition at 10 µM in test [1] (test compound 10 μmol) and in test [2] (test compound 10 μmol) were 50% and 10%, respectively. For the same compound, the inhibition at 30 µM in test [1] (test compound 30 μmol) came to 50%; in test [2] (test compound 30 μmol) it was 20%. The inhibition at 100 µM came to 95% in test [1] (test compound 100 μmol) and 30% in test [2] (test compound 100 μmol).
With `CN(CCC(=O)c1ccc(Oc2ccccc2)cc1)Cc1ccccc1` [Example 86, 2-(N-methylbenzyl)aminoethyl-4-phenoxyphenylketone], the inhibition at 10 µM in test [1] (test compound 10 μmol) was 30%; in test [2] (test compound 10 μmol) it was 0%. For the same compound, the inhibition at 30 µM in test [1] (test compound 30 μmol) was 70%; in test [2] (test compound 30 μmol), 20%. Further, the values for the inhibition at 100 µM in test [1] (test compound 100 μmol) and in test [2] (test compound 100 μmol) were 95% and 50%, respectively.
For `O=C(CCNCC(O)c1ccccc1)c1ccc(Oc2ccccc2)cc1` (stereo not drawn) [Example 87, 2-(N-2-hydroxy-2-phenylethyl)aminoethyl-4-phenoxyphenylketone], the inhibition at 10 µM in test [1] (test compound 10 μmol) came to 10%; in test [2] (test compound 10 μmol), 0%. The results for the inhibition at 30 µM in test [1] (test compound 30 μmol) and in test [2] (test compound 30 μmol) were 10% and 0%, respectively. In addition, the inhibition at 100 µM in test [1] (test compound 100 μmol) worked out at 90%; in test [2] (test compound 100 μmol), 20%.
With `O=C(CCN1CCCCC1)c1ccc2c(Cl)cccc2c1` [Example 88, 2-piperidinoethyl-5-chloro-2-naphthylketone], the values for the inhibition at 10 µM in test [1] (test compound 10 μmol) and in test [2] (test compound 10 μmol) were 10% and 0%, respectively. For the same compound, the inhibition at 30 µM in test [1] (test compound 30 μmol) worked out at 10%; in test [2] (test compound 30 μmol), 0%. Also, the inhibition at 100 µM in test [1] (test compound 100 μmol) was found to be 100%; in test [2] (test compound 100 μmol), 20%.
Consider `O=C(CCN(CCO)Cc1ccccc1)c1ccc2c(Cl)cccc2c1` [Example 89, 2-(N-2-hydroxyethylbenzyl)aminoethyl-5-chloro-2-naphthylketone], for which the inhibition at 10 µM in test [1] (test compound 10 μmol) was 30%; in test [2] (test compound 10 μmol) it was 0%. For the same compound, the inhibition at 30 µM in test [1] (test compound 30 μmol) is 80%; in test [2] (test compound 30 μmol) it was 10%. The inhibition at 100 µM in test [1] (test compound 100 μmol) stood at 100%; in test [2] (test compound 100 μmol), 80%.
For `CCC(CO)(CO)NCCC(=O)c1ccc2c(Cl)cccc2c1` [Example 90, 2-(N-1,1-dihydroxymethylpropyl)aminoethyl-5-chloro-2-naphthylketone], the inhibition at 10 µM in test [1] (test compound 10 μmol) was 10%; in test [2] (test compound 10 μmol) it was 0%. Moreover, the inhibition at 30 µM in test [1] (test compound 30 μmol) amounted to 20%; in test [2] (test compound 30 μmol) it was 10%. Further, the inhibition at 100 µM worked out at 100% in test [1] (test compound 100 μmol) and 30% in test [2] (test compound 100 μmol).
As for `CCCCN(CCO)CCC(=O)c1ccc2c(Cl)cccc2c1` [Example 91, 2-(N-2-hydroxyethylbutyl)aminoethyl-5-chloro-2-naphthylketone], the inhibition at 10 µM in test [1] (test compound 10 μmol) amounted to 20%; in test [2] (test compound 10 μmol) it was 0%. The inhibition at 30 µM is 90% in test [1] (test compound 30 μmol) and 10% in test [2] (test compound 30 μmol). Further, the inhibition at 100 µM in test [1] (test compound 100 μmol) amounted to 100%; in test [2] (test compound 100 μmol), 90%.
On to `C=CCC(=O)c1ccc2ccccc2c1` [Example 92, Allyl-2-naphthylketone], for which the inhibition at 10 µM in test [1] (test compound 10 μmol) and in test [2] (test compound 10 μmol) was 0% each time. Further, the inhibition at 30 µM in test [1] (test compound 30 μmol) and in test [2] (test compound 30 μmol) was 0% each time. Also, the inhibition at 100 µM in test [1] (test compound 100 μmol) was 30%; in test [2] (test compound 100 μmol), 0%.
In the case of `C=CCC(=O)c1cccc2ccccc12` [Example 93, Allyl-1-naphthylketone], the values for the inhibition at 10 µM in test [1] (test compound 10 μmol) and in test [2] (test compound 10 μmol) were 20% and 0%, respectively. The results for the inhibition at 30 µM in test [1] (test compound 30 μmol) and in test [2] (test compound 30 μmol) were 70% and 0%, respectively. For the same compound, the inhibition at 100 µM in test [1] (test compound 100 μmol) was 90%; in test [2] (test compound 100 μmol), 30%.
With `CC(C)(C)N(CCC(=O)c1ccccn1)Cc1ccccc1` [Example 94, 2-(N-t-butylbenzyl)aminoethyl-2-pyridylketone], the inhibition at 10 µM amounted to 30% in test [1] (test compound 10 μmol) and 0% in test [2] (test compound 10 μmol). The inhibition at 30 µM came to 90% in test [1] (test compound 30 μmol) and 0% in test [2] (test compound 30 μmol). Further, the inhibition at 100 µM in test [1] (test compound 100 μmol) was 100%; in test [2] (test compound 100 μmol), 0%.
Consider `O=C(CCN1CCCCC1)c1ccccn1` [Example 95, 2-piperidinoethyl-2-pyridylketone], for which the inhibition at 10 µM in test [1] (test compound 10 μmol) and in test [2] (test compound 10 μmol) was 0% throughout. Also, the inhibition at 30 µM in test [1] (test compound 30 μmol) came out at 10%; in test [2] (test compound 30 μmol), 0%. For the same compound, the inhibition at 100 µM in test [1] (test compound 100 μmol) stood at 10%; in test [2] (test compound 100 μmol), 0%.
Take `O=C(CCN(CCO)Cc1ccccc1)c1ccccn1` [Example 96]: the inhibition at 10 µM in test [1] (test compound 10 μmol) amounted to 20%; in test [2] (test compound 10 μmol), 0%. The inhibition at 30 µM in test [1] (test compound 30 μmol) amounted to 30%; in test [2] (test compound 30 μmol) it was 0%. Besides, the inhibition at 100 µM in test [1] (test compound 100 μmol) amounted to 100%; in test [2] (test compound 100 μmol), 0%.
`COC(=O)C(CCC(=O)c1ccc2ccccc2c1)C(C)=O` (stereo not drawn) [Example 97, 3-acetyl-3-methoxycarbonylpropyl-2-naphthylketone]: the inhibition at 10 µM in test [1] (test compound 10 μmol) and in test [2] (test compound 10 μmol) was 0% throughout. The inhibition at 30 µM in test [1] (test compound 30 μmol) and in test [2] (test compound 30 μmol) was 10% in each case. Besides, the results for the inhibition at 100 µM in test [1] (test compound 100 μmol) and in test [2] (test compound 100 μmol) were 70% and 90%, respectively.
Regarding `CCC(=O)C(CCC(=O)c1ccc2ccccc2c1)C(=O)OC` (stereo not drawn) [Example 98, 3-propionyl-3-methoxycarbonylpropyl-2-naphthylketone], the inhibition at 10 µM in test [1] (test compound 10 μmol) and in test [2] (test compound 10 μmol) was 0% throughout. The inhibition at 30 µM in test [1] (test compound 30 μmol) was 0%; in test [2] (test compound 30 μmol) it was 10%. Besides, the results for the inhibition at 100 µM in test [1] (test compound 100 μmol) and in test [2] (test compound 100 μmol) were 0% and 60%, respectively.
As for `CN(CCC(=O)c1ccc2ccccc2c1)Cc1ccccc1` [Example 99, 2-(N-methylbenzyl)aminoethyl-2-naphthylketone], the “IICR level (percentage of inhibition)” value stood at 0% in test [1] (test compound 10 μmol), 20% in test [1] (test compound 30 μmol) and 60% in test [1] (test compound 100 μmol). Further, the “SOCE level (percentage of inhibition)” value in test [2] (test compound 10 μmol) was 0%; in test [2] (test compound 30 μmol) it was 0%; in test [2] (test compound 100 μmol), 30%.
